Measured values from patent US8772488B2 (Shanghai Institute of Pharmaceutical Industry, priority 2009, dated 2014).

What was measured:
platelet aggregation = settings: cited from earlier work
[1] = Influence factor test (stability under heat, light, high humidity; HPLC purity); assay type: physicochemical
Protocol: Experimental method: refer to Pharmacopoeia of the People's Republic of China. 2005 ed. Part 2. Appendix XIX C
HPLC conditions: instrument: Agilent 1100
Chromatographic column: Phenomenex Hyperclone 5μ BDS C18
Mobile phase: acetonitrile: KH2PO4 (10 mM)=70:30
Column temperature: 40° C.

[2] = Solubility of acetic acid solvate (0.1N hydrogen chloride aqueous solution); assay type: physicochemical; settings: for Solubility (0.1N hydrogen chloride aqueous solution), descriptive term: Chinese Pharmacopoeia 2005 General Notices
Source text: Sample Sources: the Same as Example 10
Experimental method: refer to Pharmacopoeia of the People's Republic of China. 2005 ed. Part 2. General Notices.

[3] = cited from earlier work

Compound	Inhibition of platelet aggregation (platelet aggregation)	Purity (HPLC area normalization) tR 6.2 ([1]; 0 day)	Purity (HPLC area normalization) tR 6.2 ([1]; 60° C. for 5 days)	Purity (HPLC area normalization) tR 6.2 ([1]; 60° C. for 10 days)	Purity (HPLC area normalization) tR 6.2 ([1]; RH 92.5% 5 days)	Purity (HPLC area normalization) tR 6.2 ([1]; RH 92.5% 10 days)	Purity (HPLC area normalization) tR 6.2 ([1]; light for 5 days)	Purity (HPLC area normalization) tR 6.2 ([1]; light for 10 days)	Stability of crystal A compared with crystal B ([1]; stability test)	Stability compared with X1 and X2 ([1]; under all the conditions of light, 60° C., and RH 92.5%)	Solubility compared with prasugrel hydrobromate and hydrochlorate [2]	Solubility (0.1N hydrogen chloride aqueous solution), descriptive term [2]	Water solubility compared to hydrochloride [3]
maleate	good activity												
CC(=O)Oc1cc2c(s1)CCN(C(C(=O)C1CC1)c1ccccc1F)C2 (stereo not drawn) [Example X3, 2-acetoxy-5-(α-cyclopropylcarbonyl-2fluorobenzyl)-4,5,6,7-tetrahydrothieno[3,2-c]pyridine hydrobromate]		99.84	99.72	99.46	99.65	99.50	99.56	99.57	better than crystal B	more stable	better solubility	easily soluble	
CC(=O)Oc1cc2c(s1)CCN(C(C(=O)C1CC1)c1ccccc1F)C2 (stereo not drawn) [Example X1]	good activity	99.08	98.89	98.29	98.39	98.20	98.49	98.20				slightly soluble	
Br.CC(=O)Oc1cc2c(s1)CCN(C(C(=O)C1CC1)c1ccccc1F)C2 (stereo not drawn) [Example X2]		99.83	99.39	99.01	96.62	96.12	99.40	98.83				degraded	improved
